Measurements reported in patent publication US20080286282A1, “Novel Use of Sulfonamide Compound in Combination with Angiogenesis Inhibitor” (Eisai R & D Management Co., Ltd., priority 2005, published 2008).
Read-outs that look alike come from different tables or passages of the source.

Legend:
[1] = tested on: human renal cancer cell line (786-O); experiment: Subcutaneous transplant model of human renal cancer cell line 786-O, E7820 and Bevacizumab (Example 9); format: in vivo; conditions: 786-O s.c. in nude mouse; E7820 200 mg/kg twice a day orally 2 weeks; Bevacizumab 25 mg/kg twice a week i.v. 2 weeks
Protocol: (§1) Human renal cancer cell line 786-0 (obtained from ATCC) was cultured in RPMI1640 (containing 10% FBS) in a 5% carbon dioxide incubator at 37° C. to about 80% confluence, and the cells were collected with trypsin-EDTA. Using a phosphate buffer containing 50% matrigel, 1×10^8 cells/mL suspension was prepared, and 0.1 mL each of the resulting cell suspension was subcutaneously transplanted to a nude mouse at the side of its body.
Seven days after the transplantation, E7820 and Bevacizumab were administered alone or in combination. E7820 was orally administered at 200 mg/kg twice a day for 2 weeks while Bevacizumab was intravenously administered at 25 mg/kg twice a week for 2 weeks.
The major and minor axes of tumors were measured with Digimatic caliper (Mitsutoyo), and tumor volumes and relative tumor volumes were calculated according to the following formulae.
(§2) Tumor Volume TV=Major axis of tumor (mm)×(Minor axis of tumor)^2 (mm^2)/2
(§3) Relative Tumor Volume RTV=Tumor volume on measurement day/Tumor volume on the first administration day

HCT116-C9-C4 = experiment: Cell growth inhibition assay (MTT, 72 h) on E7070-resistant HCT116-C9-C4; format: cell-based; conditions: Homo sapiens
Protocol: (§4) An E7070-resistant cell line was used to assess the antiproliferative activities of E7820, LY186641, LY295501, LY-ASAP and CQS. HCT116-C9 was a substrain separated from human colon cancer-derived HCT116 (American Type Culture Collection, Manassas, Va., U.S.A.). This HCT116-C9 was cultured in the presence of E7070 while increasing the E7070 concentration by degrees, thereby obtaining E7070-resistant substrains HCT116-C9-C1 and HCT116-C9-C4 (Molecular Cancer Therapeutics, 2002, 1, 275-286).
(§5) Three cell lines, i.e., HCT116-C9, HCT116-C9-C1 and HCT116-C9-C4, were each seeded at 3000 cells/well onto a 96-well microplate (flat bottom) (50 μl/well). Twenty-four hours later, they were added with a 3-fold dilution series of each compound (50 μl/well). Seventy-two hours later, the antiproliferative activities were assessed by MTT method (Mossmann T., J. Immunol. Methods, 1983, 65, 55-63). The 50% growth inhibitory concentrations to the cancer cells were obtained by a least square method.
(§6) In exactly the same manner as in Example 6, an E7070-resistant cell line was used to assess the antiproliferative activities of LY573636 as well as those of E7070.

[2] = tested on: human colon cancer cell line (Colo320DM); experiment: Subcutaneous transplant model of human colon cancer cell line Colo320DM, E7820 and Bevacizumab (Example 2); format: in vivo; conditions: Colo320DM s.c. in nude mouse; E7820 200 mg/kg twice a day orally 3 weeks; Bevacizumab 25 mg/kg twice a week i.v. 3 weeks
Protocol: Human colon cancer cell line Colo320DM (purchased from Dainippon Pharmaceutical) was cultured in RPMI1640 (containing 10% FBS) in a 5% carbon dioxide incubator at 37° C. to about 80% confluence, and the cells were collected with trypsin-EDTA. Using a phosphate buffer containing 50% matrigel, 5×10^7 cells/mL suspension was prepared, and 0.1 mL each of the resulting cell suspension was subcutaneously transplanted to a nude mouse at the side of its body. Seven days after the transplantation, administration of E7820 (200 mg/kg, twice a day, for 3 weeks, orally administered) and administration of Bevacizumab (25 mg/kg, twice a week, for 3 weeks, intravenously administered) were initiated. The major and minor axes of tumors were measured with Digimatic caliper (Mitsutoyo), and tumor volumes and relative tumor volumes were calculated according to the following formulae.
as §2, §3

HCT116-C9 = experiment: Cell growth inhibition assay (MTT, 72 h) on HCT116-C9; format: cell-based; conditions: Homo sapiens
Protocol: as §4, §5, §6

HCT116-C9-C1 = experiment: Cell growth inhibition assay (MTT, 72 h) on E7070-resistant HCT116-C9-C1; format: cell-based; conditions: Homo sapiens
Protocol: as §4, §5, §6

[3] = tested on: human colon cancer cell line (Colo320DM); experiment: Subcutaneous transplant model of human colon cancer cell line Colo320DM, E7070 and Bevacizumab (Example 8); format: in vivo; conditions: Colo320DM s.c. in nude mouse, E7070 40 mg/kg i.v. Days 1 to 5, Bevacizumab 25 mg/kg i.v. Days 1, 5, 8 and 12; for Relative Tumor Volume (RTV) Average ± standard deviation: Day 23
Protocol: as §1, with “colon” for “renal”, “Colo320DM (purchased” for “786-0 (obtained”, “incubator” for “incubator at 37° C.”, “Hanks balanced solution, 5×10^7” for “a phosphate buffer containing 50% matrigel, 1×10^8”
Following transplantation, E7070 (40 mg/kg/day) and Bevacizumab (25 mg/kg/day) were administered alone or in combination when the average tumor volume became 259 mm^3.
E7070 alone was intravenously administered once a day for 5 days (on Days 1 to 5). On the other hand, Bevacizumab alone was intravenously administered twice a week for 2 weeks (on Days 1, 5, 8 and 12).
For the combinational use group, E7070 was intravenously administered on Days 1 to 5 while Bevacizumab was intravenously administered on Days 1, 5, 8 and 12.
The major and minor axes of tumors were measured twice a week from the initiation of administration with Digimatic caliper (Mitsutoyo), and tumor volumes were calculated according to the following formula.
as §2
The following two values were used for judging an anti-tumor effect.
Tx4: time (days) required for the tumor to grow to four times the initial tumor volume
RTV: Relative tumor volume (RTV)* on Day 23
*RTV=Tumor volume on Day 23/Initial tumor volume on Day 1

[4] = Example 6, read-out: antiproliferative activity, IC50
[5] = Example 7, read-out: antiproliferative activity, IC50

IC50 (HCT116-C9-C4; [4])	IC50 (HCT116-C9; [4])	IC50 (HCT116-C9-C1; [4])	IC50 (HCT116-C9-C4; [5])	IC50 (HCT116-C9-C1; [5])	IC50 (HCT116-C9; [5])	Compound	Relative tumor volume on Day 22 Average ± standard deviation [1]	Relative tumor volume on Day 22 Average ± standard deviation [2]	Tx4 Average ± standard deviation (time required for the tumor to grow to four times the initial tumor volume) [3]	Relative Tumor Volume (RTV) Average ± standard deviation [3]
26.9 µM	0.127 µM	31.9 µM	28 µM	32.7 µM	–	NS(=O)(=O)c1ccc(S(=O)(=O)Nc2cccc3c(Cl)c[nH]c23)cc1 [E7070, N-(3-chloro-1H-indole-7-yl)-4-sulfamoylbenzenesulfonamide]	–	–	27.0 ± 3.4 days	2.70 ± 0.97
138 µM	33.6 µM	134 µM	–	–	–	O=C(Nc1ccc(Cl)cc1)NS(=O)(=O)c1ccc2c(c1)CCC2 [LY186641, N-[[(4-chlorophenyl)amino]carbonyl]-2,3-dihydro-1H-indene-5-sulfonamide]	–	–	–	–
110 µM	10.9 µM	111 µM	–	–	–	O=C(Nc1ccc(Cl)c(Cl)c1)NS(=O)(=O)c1ccc2c(c1)CCO2 [LY295501, N-[[(3,4-dichlorophenyl)amino]carbonyl]-2,3-dihydrobenzofuran-5-sulfonamide]	–	–	–	–
90.3 µM	1.63 µM	113 µM	–	–	–	O=C(NS(=O)(=O)c1ccc(Cl)cc1)c1ccc(Cl)cc1Cl [LY-ASAP, N-(2,4-dichlorobenzoyl)-4-chlorophenylsulfonamide]	–	–	–	–
–	–	–	240 µM	264 µM	5.11 µM	O=C(NS(=O)(=O)c1ccc(Br)s1)c1ccc(Cl)cc1Cl [LY573636, N-(2,4-dichlorobenzoyl)-5-bromothiophene-2-sulfonamide]	–	–	–	–

Second part, the compound before the results:

Compound	IC50 (HCT116-C9-C4; [4])	IC50 (HCT116-C9; [4])	IC50 (HCT116-C9-C1; [4])	IC50 (HCT116-C9-C4; [5])	IC50 (HCT116-C9-C1; [5])	IC50 (HCT116-C9; [5])	Relative tumor volume on Day 22 Average ± standard deviation [1]	Relative tumor volume on Day 22 Average ± standard deviation [2]	Tx4 Average ± standard deviation (time required for the tumor to grow to four times the initial tumor volume) [3]	Relative Tumor Volume (RTV) Average ± standard deviation [3]
Cc1ccc(NS(=O)(=O)c2cccc(C#N)c2)c2[nH]cc(C#N)c12 [E7820, N-(3-cyano-4-methyl-1H-indole-7-yl)-3-cyanobenzenesulfonamide]	52.8 µM	0.08 µM	51.2 µM	–	–	–	0.6 ± 0.1	6.1 ± 1.8	–	–
Bevacizumab: human anti-VEGF (Vascular Endothelial Growth Factor) monoclonal antibody, obtained by purchasing Avastin from Genentech	–	–	–	–	–	–	1.8 ± 0.2	5.1 ± 0.8	26.3 ± 2.8 days	2.84 ± 0.68
Nc1ccc(S(=O)(=O)Nc2cnc3c(Cl)cccc3n2)cc1 [CQS, 2-sulfanylamide-5-chloroquinoxaline]	517 µM	1.73 µM	634 µM	–	–	–	–	–	–	–
